Measurements taken from PubChem BioAssay AID504544 (Sanford-Burnham Center for Chemical Genomics, 2011).
The source made the active and inactive calls. No rule for the calls is given here.

System: S. cerevisiae tim23-1 mutant growth, luminescence
Experiment: tim23-1 yeast growth suppression potency – luminescence, uHTS hits, counter-screen for tim10-1 yeast inhibitor project, dose response (AID 504544)

`C/C(=N\NC(=S)NCc1ccccc1)c1ccc(Cl)s1` and `N/C(=N\OC(=O)CCCc1ccccc1)c1ccccc1Cl` are within 1.5-fold of each other in IC50: 17.5 µM for the first, 14 µM for the second.

`O=C(NNC(=S)Nc1ccc(Cl)cc1)c1ccccc1OC(F)F` and `O=C(NC(=S)NNC(=O)c1ccccc1[N+](=O)[O-])c1ccc(Br)cc1` are within 1.5-fold of each other in IC50: 8.73 µM for the first, 12.5 µM for the second.

`Cc1ccc(NC(=S)Nc2ccc(Cl)c(Cl)c2)c(OC(F)F)c1` and `CC(=O)c1ccc(NC(=S)NC(C)c2ccc(Cl)cc2Cl)cc1` (stereo not drawn) are within 1.5-fold of each other in IC50: 14.4 µM for the first, 13.8 µM for the second.

`Nc1nc(-c2ccc(Br)cc2)cs1` and `COc1ccc(C(=O)O/N=C(\N)c2ccc(Br)cc2)cc1` are within 1.5-fold of each other in IC50: 17.6 µM for the first, 14.4 µM for the second.

Going from `Cc1cc(C)c(CSc2ncc(-c3ccc([N+](=O)[O-])cc3)[nH]2)c(C)c1` to `Cc1onc(-c2ccc3c(c2)OCO3)c1-c1ccc2[nH]ccc2c1`, the IC50 falls from 17.4 µM to 10.7 µM (1.6-fold).

First: COc1ccc(NC2CCN(C3CC(=O)N(c4ccc(F)c(Cl)c4)C3=O)CC2)cc1 (stereo not drawn)
Second: CN=C(Nc1cc(Cl)ccc1Cl)SC1CC(=O)N(c2ccc(C(=O)OC)cc2)C1=O (stereo not drawn)
The IC50 of the first is 2.7-fold lower: 5.66 µM for the first, 15.4 µM for the second. The first is the more potent here.

First: CCOC(=O)c1ccc(NC(=O)CC2OCCN(CC)C2=O)cc1 (stereo not drawn)
Second: CCOC(=O)c1ccc(N2C(=O)C=CC2=O)cc1
The IC50 of the first is 4.2-fold higher: 2.02 µM for the first, 0.48 µM for the second. The second is the more potent here.

`CCOC(=O)c1c(OCC)[nH]c2c1cc(O)c1ccccc12` and `CCOC(=O)c1cc(-c2cccs2)nc2c1c(C)nn2-c1ccccn1` are within 1.5-fold of each other in IC50: 17.1 µM for the first, 17.3 µM for the second.

First: CC(C)Nc1nnc(Sc2ccc(Cl)cc2[N+](=O)[O-])s1
Second: CC(C)CN(CC(C)C)C(=S)Nc1ccc(Cl)cc1
The IC50 of the first is 21-fold lower: 2.66 µM for the first, 55.2 µM for the second. The first is the more potent here.

`CCCn1c(CC)nc([N+](=O)[O-])c1S(=O)(=O)c1ccccc1` and `O=c1c2ccccc2nc(/C=C/c2ccc([N+](=O)[O-])o2)n1CCCO` are within 1.5-fold of each other in IC50: 6.66 µM for the first, 5.81 µM for the second.

Compared with `O=C1CS(=O)(=O)N(Cc2cccc(F)c2)c2ccc(Br)cc21`, `O=C(Nc1cccc(N2C(=O)C=CC2=O)c1)c1cccs1` is 5-fold lower in IC50: 12.6 µM for the first, 2.52 µM for the second. The second is the more potent here.

First: COc1ccc(-n2cc(-c3ccccc3)c3c(=S)nc[nH]c32)cc1
Second: COc1ccc(-c2[nH]ncc2N=Nc2ccccc2)cc1
The IC50 of the first is 4.1-fold higher: 38.4 µM for the first, 9.41 µM for the second. The second is the more potent here.

Compared with `Nc1nc(N)c(C=Nc2ccc(Br)cc2)c(Nc2ccc(Br)cc2)n1`, `c1ccc(Nc2cccc(Nc3ccccc3)n2)cc1` is 1.5-fold lower in IC50: 14 µM for the first, 9.11 µM for the second.

`O=S(=O)(CCN(CCS(=O)(=O)C(F)(F)F)CC1CCCO1)C(F)(F)F` (stereo not drawn) and `COc1ccc2sc(N(CCCN(C)C)C(=O)c3ccc(S(=O)(=O)N4CCCc5ccccc54)cc3)nc2c1` are within 1.5-fold of each other in IC50: 11.2 µM for the first, 11.9 µM for the second.

First: COc1cc(N=c2ssnc2Cl)c(OC)cc1Cl
Second: COc1ccc(C(=O)O/N=C(\N)Cc2ccc(Cl)c(Cl)c2)cc1OC
The IC50 of the first is 2.7-fold higher: 3.77 µM for the first, 1.38 µM for the second. The second is the more potent here.

Compared with `Cc1ccc(NC(=O)c2cc(S(=O)(=O)NCCC3=CCCCC3)ccc2F)cc1`, `Cc1ccccc1OCC(=O)Nc1ccc(S(=O)(=O)N2CCCC2)cc1` is 4.2-fold lower in IC50: 33.2 µM for the first, 7.95 µM for the second. The second is the more potent here.

Going from `Cc1ccccc1/C=C/C(=O)c1ccc([N+](=O)[O-])o1` to `Nc1ccccc1C(=O)/C=C/c1ccc2c(c1)OCO2`, the IC50 rises from 1.5 µM to 18.9 µM (13-fold). The first is the more potent here.

`COc1ccc(Cl)cc1NC(=O)CN(C)C(=O)C12CC3CC(CC(Cl)(C3)C1)C2` and `COc1cc(C(=O)Nc2ccc(Cl)c(C(F)(F)F)c2)cc(OC)c1OC` are within 1.5-fold of each other in IC50: 23.8 µM for the first, 33.3 µM for the second.

First: COc1ccc(C(=O)O/N=C(\N)c2ccccc2Cl)cc1OC
Second: O=C(OCn1ncc(Br)c(Br)c1=O)c1ccccc1Cl
The IC50 of the first is 5.8-fold higher: 12.1 µM for the first, 2.07 µM for the second.

Compared with `COc1ccc2cc3cc(C(=O)NCCN4CCc5ccccc5C4)oc3nc2c1`, `Nc1c(C(=O)Nc2ccccc2)c2nc3ccccc3nc2n1CCCN1CCOCC1` is 3.7-fold higher in IC50: 3.34 µM for the first, 12.5 µM for the second.

Compared with `Cc1ccc(OCC(=O)O/N=C(\N)Cc2ccc(Cl)cc2)cc1`, `N/C(Cc1ccc(Cl)cc1Cl)=N\OC(=O)Cc1ccc(Cl)cc1` is 45-fold lower in IC50: 61.9 µM for the first, 1.39 µM for the second.

First: O=c1oc2ccccc2c(O)c1/C=C1\C=Nc2ccccc21
Second: O=C(/C=C\c1ccc(-c2ccccc2)o1)c1ccccc1
The IC50 of the first is 1.8-fold higher: 5.55 µM for the first, 3.01 µM for the second. The second is the more potent here.

Going from `CCCCNC(=S)N=Nc1c(O)[nH]c2ccccc12` to `CCCCNC(=S)Nc1ccc(C(F)(F)F)cc1`, the IC50 rises from 4.92 µM to 12 µM (2.4-fold).

First: N#C/C(=N/Nc1ccc(OC(F)(F)F)cc1)C(N)=S
Second: Fc1ccc(CNC(=S)Nc2cccc(C(F)(F)F)c2)cc1
The IC50 of the first is 9.4-fold lower: 1.31 µM for the first, 12.3 µM for the second. The first is the more potent here.

Compared with `Clc1ccc(CNc2nc(CN3CCOCC3)nc3scc(-c4ccccc4)c23)cc1`, `CCOc1ccccc1N1C(=O)CC(Sc2n[nH]c(-c3ccccc3)n2)C1=O` (stereo not drawn) is 2.8-fold lower in IC50: 11.4 µM for the first, 4.1 µM for the second. The second is the more potent here.

`COc1ccc(-c2cc(C3CC3)nc3sc(C#N)c(N)c23)cc1` and `COc1ccc(-c2sc3cc4c(cc3c2C#CC2(N)CCCCC2)OCO4)cc1` are within 1.5-fold of each other in IC50: 6.84 µM for the first, 9.36 µM for the second.

Going from `CCCCCCC(=O)N(O)C1CC(=O)N(c2ccc(C)cc2)C1=O` (stereo not drawn) to `Cc1ccc(CNC(=O)c2ccc(Cn3nc(C)c(Cl)c3C)o2)cc1`, the IC50 rises from 6.88 µM to 17.4 µM (2.5-fold). The first is the more potent here.

`O=C(O)/C=C/C(=O)c1ccc2c(c1)CCc1ccccc1-2` and `CC[C@@H]1CC=C[C@H]2[C@H]1C(=O)N(Cc1ccccc1)[C@H]2c1ccoc1` are within 1.5-fold of each other in IC50: 5.09 µM for the first, 7.42 µM for the second.

`O=C(c1cc(COc2ccc(F)cc2Cl)on1)N1CCN(c2cnccn2)CC1` showed an IC50 of 5.45 µM.

In the case of `N/C(=N\OC(=O)c1ccc(Cl)cc1)c1ccc(Cl)cc1`, the IC50 is reported as > 100 µM (inactive).
